Source: patent publication US12630498B2 (Genzyme Corporation, priority 2019, dated 2026)

Legend:
[1] = target: T1, human Cystic Fibrosis Transmembrane Conductance Regulator (CFTR) harboring the ΔF508 mutation (Homo sapiens, UniProt P13569, DEL508-508); assay: H441 cell ΔF508-CFTR-HRP cell surface assay (Emax and EC50); type: cell-based; conditions: for Emax: NCI-H441, NA = Not active
T1 construct: expressed in transfected cells; host or cells: H441 carcinoma line (G418-selected)
How it was run: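 H441 and 41o- bronchial epithelial cells expressing ΔF508-CFTR with an extracellular-loop-4 HRP tag were treated with a 15-point compound series (24.5–0.001 μM) for two nights, H441 at 27° C, 41o- at 37° C with 0.0005 mg/ml doxycycline. Surface HRP luminescence read; % of maximum VX809 signal and EC50 derived.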

[2] = target: T2, CFTR-mediated transepithelial chloride transport in primary human bronchial epithelial cells from a ΔF508 homozygous CF donor (Homo sapiens, UniProt P13569, DEL508-508); assay: TECC24 recording of CFTR-mediated transepithelial chloride transport in CF-HBE cells (AUC fold over DMSO); type: cell-based; conditions: test agent 10 μM, 48 hours incubation, AUC of forskolin-stimulated IEQ relative to DMSO
T2 construct: Primary human bronchial epithelial cells from a ΔF508 homozygous CF donor; host or cells: primary CF-HBE cells, ΔF508 homozygous donor
T2 sequence (P13569 with tags, fused parts or gaps DEL508-508): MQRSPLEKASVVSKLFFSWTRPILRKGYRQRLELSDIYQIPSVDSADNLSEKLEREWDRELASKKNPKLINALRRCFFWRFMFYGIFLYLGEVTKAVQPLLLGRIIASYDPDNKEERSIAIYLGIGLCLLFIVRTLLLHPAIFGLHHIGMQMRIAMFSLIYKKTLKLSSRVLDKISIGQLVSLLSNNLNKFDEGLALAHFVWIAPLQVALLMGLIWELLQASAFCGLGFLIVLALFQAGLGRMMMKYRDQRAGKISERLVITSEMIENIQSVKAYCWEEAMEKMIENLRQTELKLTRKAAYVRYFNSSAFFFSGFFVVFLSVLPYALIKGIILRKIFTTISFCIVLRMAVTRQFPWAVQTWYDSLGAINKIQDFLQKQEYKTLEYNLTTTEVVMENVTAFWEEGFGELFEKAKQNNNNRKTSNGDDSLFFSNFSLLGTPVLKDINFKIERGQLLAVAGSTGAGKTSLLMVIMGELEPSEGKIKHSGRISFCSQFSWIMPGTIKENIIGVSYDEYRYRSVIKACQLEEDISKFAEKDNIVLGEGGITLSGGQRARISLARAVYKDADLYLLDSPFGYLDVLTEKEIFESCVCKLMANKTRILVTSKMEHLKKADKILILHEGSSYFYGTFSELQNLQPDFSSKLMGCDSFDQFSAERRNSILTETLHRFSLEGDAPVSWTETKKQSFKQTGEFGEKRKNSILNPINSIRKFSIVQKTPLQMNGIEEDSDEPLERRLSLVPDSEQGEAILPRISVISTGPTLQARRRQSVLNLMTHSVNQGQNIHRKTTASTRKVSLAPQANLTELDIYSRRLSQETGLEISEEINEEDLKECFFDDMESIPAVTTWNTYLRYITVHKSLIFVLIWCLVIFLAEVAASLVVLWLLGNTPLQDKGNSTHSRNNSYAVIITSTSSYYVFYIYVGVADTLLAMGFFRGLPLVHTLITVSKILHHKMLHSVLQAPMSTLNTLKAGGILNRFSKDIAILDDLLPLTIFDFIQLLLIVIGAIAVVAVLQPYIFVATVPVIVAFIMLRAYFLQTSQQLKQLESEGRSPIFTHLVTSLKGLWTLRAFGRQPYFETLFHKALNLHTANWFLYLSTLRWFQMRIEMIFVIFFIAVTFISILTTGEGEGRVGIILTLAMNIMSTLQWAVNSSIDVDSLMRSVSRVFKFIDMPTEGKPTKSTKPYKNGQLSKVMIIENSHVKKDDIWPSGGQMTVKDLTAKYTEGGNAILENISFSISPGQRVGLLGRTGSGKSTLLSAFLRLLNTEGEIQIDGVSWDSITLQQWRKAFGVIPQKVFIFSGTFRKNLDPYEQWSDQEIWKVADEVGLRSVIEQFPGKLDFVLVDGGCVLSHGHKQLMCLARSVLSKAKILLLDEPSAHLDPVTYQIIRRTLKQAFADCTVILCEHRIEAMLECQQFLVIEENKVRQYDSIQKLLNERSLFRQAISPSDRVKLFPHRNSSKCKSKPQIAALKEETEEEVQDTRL
How it was run: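 Equivalent Cl⁻ current was derived from transepithelial voltage and resistance, and its AUC from forskolin (10 μM) to CFTRinh-172 (20 μM) was divided by the DMSO AUC. Benzamil 10 μM blocked ENaC. Cells were ΔF508-homozygous primary bronchial epithelia pretreated 48 h at 36.5 °C in IL-13 medium.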

T1 sequence (P13569 with tags, fused parts or gaps DEL508-508): as above

Compound	EC50 [1]	Emax [1]	TECC24 AUC fold over DMSO @10 μM [2]
CC(C)(SC1CCCC1)[C@H](NC(=O)c1ccc2ccccc2c1OCc1ccc(C(F)(F)F)cc1)C(=O)O [Example 168, (R)-3-(cyclopentylthio)-3-methyl-2-(1-((4-(trifluoromethyl)benzyl)oxy)-2-naphthamido)butanoic Acid]	800 nM	157%	B (“B” refers to AUC @10 uM between 4-6)
CCC(C)(C)[C@H](NC(=O)c1ccc2ccc(C)cc2c1OCCCC(C)C)C(=O)O [Example 294, 3,3-Dimethyl-2-{[7-methyl-1-(4-methyl-pentyloxy)-naphthalene-2-carbonyl]-amino}-pentanoic Acid]	1000 nM	281%	A (“A” refers to AUC @10 uM >6)
O=C(N[C@H](C(=O)O)C(c1ccccc1)c1ccccc1)c1ccc2ccccc2c1OCc1ccc(C(F)(F)F)c(F)c1 [Example 130, (S)-2-(1-((3-fluoro-4-(trifluoromethyl)benzyl)oxy)-2-naphthamido)-3,3-diphenylpropanoic Acid]	200 nM	196%	C (“C” refers to AUC @10 uM <4)
CC(C)(C)[C@H](NC(=O)c1ccc2cc(N)ccc2c1OCc1ccc(C(F)(F)F)cc1)C(=O)O [Example 52, (S)-2-(6-amino-1-((4-(trifluoromethyl)benzyl)oxy)-2-naphthamido)-3,3-dimethylbutanoic Acid]	7300 nM	91.4%	C (“C” refers to AUC @10 uM <4)
O=C(N[C@H](C(=O)O)c1cccc2ccccc12)c1ccc2ccccc2c1OCc1ccc(C(F)(F)F)cc1 [Example 142, (S)-2-(naphthalen-1-yl)-2-(1-((4-(trifluoromethyl)benzyl)oxy)-2-naphthamido)acetic Acid]	2200 nM	86.9%	C (“C” refers to AUC @10 uM <4)
CC(C)(C)[C@H](NC(=O)c1ccc2ccccc2c1OCc1ccc(S(=O)(=O)C(F)(F)F)cc1)C(=O)O [Example 57, (S)-3,3-dimethyl-2-(1-((4-((trifluoromethyl)sulfonyl)benzyl)oxy)-2-naphthamido)butanoic Acid]	1500 nM	87.9%	C (“C” refers to AUC @10 uM <4)
CC(C)(SC1CCCC1)[C@H](NC(=O)c1ccc2ccccc2c1OCC1CCCCC1)C(=O)O [Example 170, (R)-2-(1-(cyclohexylmethoxy)-2-naphthamido)-3-(cyclopentylthio)-3-methylbutanoic Acid]	5000 nM	143%	C (“C” refers to AUC @10 uM <4)
CC(C)(SCC1CC1(F)F)[C@H](NC(=O)c1ccc2cc(F)ccc2c1OCc1ccc(SC(F)(F)F)cc1)C(=O)O (stereo partly drawn) [Example 167, (2R)-3-(((2,2-difluorocyclopropyl)methyl)thio)-2-(6-fluoro-1-((4-((trifluoromethyl)thio)benzyl)oxy)-2-naphthamido)-3-methylbutanoic Acid]	1200 nM	63.5%	C (“C” refers to AUC @10 uM <4)
O=C(N[C@H](C(=O)O)C1CCCC1)c1ccc2cc(F)ccc2c1OCc1ccc(C(F)(F)F)cc1 [Example 153, (S)-2-cyclopentyl-2-(6-fluoro-1-((4-(trifluoromethyl)benzyl)oxy)-2-naphthamido)acetic Acid]	1500 nM	73.5%	B (“B” refers to AUC @10 uM between 4-6)
CC(C)(C)[C@H](NC(=O)c1ccc2ccccc2c1OCc1ccc(S(F)(F)(F)(F)F)cc1)C(=O)O [Example 67, (S)-3,3-dimethyl-2-(1-((4-(pentafluoro-l6-sulfanyl)benzyl)oxy)-2-naphthamido)butanoic Acid]	800 nM	112%	A (“A” refers to AUC @10 uM >6)
O=C(N[C@H](C(=O)O)C1CCCC1)c1ccc2cc(F)ccc2c1OCc1ccc(SC(F)(F)F)cc1 [Example 116, (S)-2-cyclopentyl-2-(6-fluoro-1-((4-((trifluoromethyl)thio)benzyl)oxy)-2-naphthamido)acetic Acid]	1200 nM	51.4%	C (“C” refers to AUC @10 uM <4)
CCC(C)(C)[C@H](NC(=O)c1ccc2ccc(C(F)(F)F)cc2c1OCc1ccc(C(F)(F)F)cc1)C(=O)O [Example 295, (S)-3,3-dimethyl-2-(7-(trifluoromethyl)-1-((4-(trifluoromethyl)benzyl)oxy)-2-naphthamido)pentanoic Acid]	100 nM	229%	A (“A” refers to AUC @10 uM >6)
CCCC(C)(C)[C@H](NC(=O)c1ccc2ccc(C(F)F)cc2c1OCc1ccc(C(F)(F)F)cc1)C(=O)O [Example 246, (2S)-2-[[7-(difluoromethyl)-1-[[4-(trifluoromethyl)phenyl]methoxy]naphthalene-2-carbonyl]amino]-3,3-dimethylhexanoic Acid]	100 nM	442%	A (“A” refers to AUC @10 uM >6)
CC(C)(C)[C@H](NC(=O)c1ccc2ccccc2c1OCc1ccc(C(F)(F)F)cc1F)C(=O)O [Example 70, (S)-2-(1-((2-fluoro-4-(trifluoromethyl)benzyl)oxy)-2-naphthamido)-3,3-dimethylbutanoic Acid]	800 nM	272%	C (“C” refers to AUC @10 uM <4)
O=C(N[C@@H](CCc1ccccc1)C(=O)O)c1ccc2ccccc2c1OCc1ccc(C(F)(F)F)cc1 [Example 88, (S)-4-phenyl-2-(1-((4-(trifluoromethyl)benzyl)oxy)-2-naphthamido)butanoic Acid]	7300 nM	64.4%	C (“C” refers to AUC @10 uM <4)
CC(C)(C)[C@H](NC(=O)c1ccc2ccc(F)cc2c1OCc1ccc(OC(F)(F)F)cc1)C(=O)O [Example 239, (S)-2-(7-fluoro-1-((4-(trifluoromethoxy)benzyl)oxy)-2-naphthamido)-3,3-dimethyl Butanoic Acid]	300 nM	235%	A (“A” refers to AUC @10 uM >6)
COc1ccc2ccc(C(=O)N[C@H](C(=O)O)C(C)(C)C)c(OCc3ccc(OC(F)(F)F)cc3)c2c1 [Example 310, (S)-2-(7-methoxy-1-((4-(trifluoromethoxy)benzyl)oxy)-2-naphthamido)-3,3-dimethylbutanoic Acid]	600 nM	299%	A (“A” refers to AUC @10 uM >6)
CC(C)(C)[C@H](NC(=O)c1ccc2ccc(-c3cscn3)cc2c1OCc1ccc(OC(F)(F)F)cc1)C(=O)O [Example 252, (2S)-3,3-dimethyl-2-[[7-thiazol-4-yl-1-[[4-(trifluoromethoxy)phenyl]methoxy]naphthalene-2-carbonyl]amino]butanoic Acid]	600 nM	110%	A (“A” refers to AUC @10 uM >6)
C[C@H](OC(C)(C)C)C(NC(=O)c1ccc2ccccc2c1OCc1ccc(C(F)(F)F)cc1)C(=O)O (stereo partly drawn) [Example 134, (3S)-3-(tert-butoxy)-2-(1-((4-(trifluoromethyl)benzyl)oxy)-2-naphthamido)butanoic Acid]	1000 nM	84.9%	C (“C” refers to AUC @10 uM <4)
O=C(N[C@H](C(=O)O)C1CCCC1)c1ccc2ccccc2c1OCc1ccc(S(F)(F)(F)(F)F)cc1 [Example 111, (S)-2-cyclopentyl-2-(1-((4-(pentafluoro-16-sulfanyl)benzyl)oxy)-2-naphthamido)acetic Acid]	2300 nM	93.1%	B (“B” refers to AUC @10 uM between 4-6)
Cc1cc(COc2c(C(=O)N[C@H](C(=O)O)C(C)(C)C)ccc3ccccc23)no1 [Example 86, (S)-3,3-dimethyl-2-(1-((5-methylisoxazol-3-yl)methoxy)-2-naphthamido)butanoic Acid]	5600 nM	108%	C (“C” refers to AUC @10 uM <4)
CC(C)(C)C[C@H](NC(=O)c1ccc2ccccc2c1OCc1nc2ccccc2s1)C(=O)O [Example 214, (S)-2-(1-(benzo[d]thiazol-2-ylmethoxy)-2-naphthamido)-4,4-dimethylpentanoic Acid]	3400 nM	112%	C (“C” refers to AUC @10 uM <4)
Cc1cc2c(OCc3ccc(C(F)(F)F)cc3)c(C(=O)N[C@H](C(=O)O)C(C)(C)C)ccc2cc1F [Example 278, (S)-2-(6-fluoro-7-methyl-1-((4-(trifluoromethyl)benzyl)oxy)-2-naphthamido)-3,3-dimethylbutanoic Acid]	200 nM	248%	A (“A” refers to AUC @10 uM >6)
CCCC(C)(C)[C@H](NC(=O)c1ccc2ccc(C(F)(F)F)cc2c1OCc1ccc(C(F)(F)F)cc1)C(=O)O [Example 304, (S)-3,3-dimethyl-2-(7-(trifluoromethyl)-1-((4-(trifluoromethyl)benzyl)oxy)-2-naphthamido)hexanoic Acid]	100 nM	249%	A (“A” refers to AUC @10 uM >6)
